Assay results reported in US20090291857A1, “METHODS TO IDENTIFY INHIBITORS OF THE UNFOLDED PROTEIN RESPONSE” (THE BOARD OF TRUSTEES OF THE LELAND STANFORD JUNIOR …, priority 2006, published 2009).

How the values were obtained:
XBP-luciferase reporter = XBP-luciferase reporter assay under Tm or hypoxia; type: cell-based, human
Method: HT1080 cells stably expressing the XBP-luciferase construct were grown in 60 mm dishes to 60-70% confluency. Following hypoxia treatment, cells were washed twice with PBS, lysed in 400 μl 1× reporter lysis buffer (RLB) (Promega, Madison Wis.) for 30 min at 24° C. Lysates (100 μl) were mixed with an equal volume of luciferase substrate (Promega), and assayed using a luminometer. For 5×-UPRE-luciferase reporter assays, cells were co-transfected with the appropriate reporter plasmid and a control plasmid (pSV40-beta-gal) using Lipofectamine 2000 (Invitrogen, San Diego, Calif.). Twenty-four hours after transfection, fresh media was added, and cells were treated with Tm or shifted to hypoxia. After treatment, cells were lysed in 1× RLB and analyzed for luciferase activity as described above. Beta-galactosidase activity was determined using the beta-galactosidase enzyme assay system (Promega).
A. XBP-luciferase reporter construct. […] After 24 hours, luciferase activity was analyzed in an automated plate reader. For each cell line, values are expressed as the percent inhibition of the median for Tm/Tg-treated wells, corrected for background. […] Values are expressed as the fold increases over uninduced levels. […] Cells were harvested, lysed, and analyzed by immunoblotting with antisera specific for HIF-1α (top), XBP-1s (middle) or actin (bottom). […]

XBP-1s = test: Western immunoblot analysis of XBP-1s in HT1080 cells; type: cell-based, human; settings: 2 μM; for levels of XBP-1s under hypoxia: 24 hours of hypoxia
Method: Cells were harvested, lysed, and analyzed by Western blot using anti-XBP-1 antisera (lower panel) or anti-HIF-1 antisera (top panel) to confirm hypoxia exposure.
Cells (2×10^6) were cultured in 10-cm dishes, collected using a cell scraper at 4° C., and lysed by addition of 150 μl cell lysis buffer [50 mM Tris pH 7.4, 150 mM NaCl, 10% glycerol, 0.5% Triton X-100. 0.5% NP-40, 2 mM Na3VO4, 20 mM beta-glycerophosphate, 10 mM NaF, 1 mM DTT, 1 mM PMSF). Lysates were centrifuged for 5 min at 10,000×g, and proteins (˜40 μg) were resolved by SDS-PAGE followed by semi-dry transfer to nitrocellulose membranes. Membranes were blocked in TBS-5% milk supplemented with 0.1% Tween-20. The blots were then probed overnight with relevant antibodies, washed, and incubated for 2 hours with species-specific secondary antibodies conjugated to horseradish peroxidase. After washing in block solution, immunoreactive material was detected by enhanced chemiluminescence (SuperSignal West Dura Extended, Pierce, Inc., Rockville, Ill.).
A. XBP-luciferase reporter construct. Firefly luciferase was inserted downstream of the IRE1α splice site in human XBP-1 to enable the conditional translation of luciferase under ER stress in an IRE1α-dependent manner. B. Selective inhibition of the XBP-luciferase reporter by irestatin 9389. […] After 24 hours, luciferase activity was analyzed in an automated plate reader. For each cell line, values are expressed as the percent inhibition of the median for Tm/Tg-treated wells, corrected for background. […] Values are expressed as the fold increases over uninduced levels. […] Cells were harvested, lysed, and analyzed by immunoblotting with antisera specific for HIF-1α (top), XBP-1s (middle) or actin (bottom). […] Total RNA was analyzed by Northern blotting using radiolabeled probes specific for P58^IPK or DER-1. […]
Since these assays employed a chimeric XBP-luciferase substrate, we next determined whether irestatin 9389 could inhibit the function of endogenous XBP-1s. […]

Cc1csc(NC(=O)CSc2nc3c(c(C(F)(F)F)c2C#N)CCC3)n1 [Compound 9389]
activation of the XBP-luciferase reporter under hypoxia (XBP-luciferase reporter; 1 μM, hypoxia 24 or 48 hours): robustly inhibited this response
inhibition at 1 µM (XBP-luciferase reporter; Homo sapiens, Tm 24 hours, read-out: inhibition of Tm-mediated activation of the XBP-luciferase reporter): > 90%
levels of XBP-1s under hypoxia (XBP-1s; listed as Irestatin 9389): blocks the accumulation of XBP-1s
levels of XBP-1s under hypoxia (XBP-1s; listed as irestatin 9389): decreased levels of XBP-1s
accumulation of XBP-1s following treatment with Tm (XBP-1s; Tm 4 μg/ml 20 hours): blocked the accumulation of XBP-1s
